{"source": "paper PMC7332481", "about": "“Ecotoxicity screening evaluation of selected pharmaceuticals and their transformation products towards various organisms” (Environmental Science and Pollution Research International, 2020)", "key": {"Raphidocelis subcapitata": {"system": "Raphidocelis subcapitata", "assay": "R. subcapitata reproduction (growth) inhibition test", "type": "cell-based", "conditions": "Raphidocelis subcapitata; for inhibition at 100 µg/mL / inhibition at 5 µg/mL: read-out: Growth inhibition of R. subcapitata; for EC50: 72 h, growth inhibition by cell counts, read-out: EC50 R. subcapitata (with confidence interval 2.5–97.5%)", "procedure": "(§1) All tests were carried out in accordance with the OECD or ISO guidelines. In general the experimental part was divided into three main steps: (i) determination of the toxicity of the native forms of pharmaceuticals (their racemic mixtures), (ii) toxicity evaluation of the selected TPs of these pharmaceuticals, and (iii) preliminary toxicity assessment of the enantiomers of selected pharmaceuticals. For each assay, range-finding tests were conducted, in order to determine the range of concentrations for the definitive tests. The main tests were repeated three times in at least two parallel replicates, with a minimum of five concentrations for native forms of the selected pharmaceuticals (including their enantiomers). The exact number of replicates and concentrations tested was included in the description of each test. […] However, TPs were tested in a different manner; first, the tests were carried out at the limit concentration of 100 mg L^−1. […] Such approach was applied in order to observe the relative toxicity of the selected TP and its native form.\n(§2) Dose-response curves were fitted using a linear logistic or logistic model (the model giving the best fit was chosen) (https://cran.r-project.org/web/packages/drfit/drfit.pdf). The mathematic formulas applied for this purpose are presented and described in the Supplementary Material. The EC50 values were given since log EC50 is a model parameter in the logistic as well as in linear logistic model.\nTest organisms were provided from Algal Culture Collection (Universität Göttingen, Germany). […] The light-dark cycle was different from the OECD guidelines, and it was introduced to imitate natural growth conditions. In order to ensure that the algae are in the exponential growth phase when used to inoculate the test solutions, the stock culture was diluted three times a week. The test was carried out in 25 mL suspension cell culture flasks (Nunc) (working volume 10 mL). All operations were performed under sterile conditions. The initial cell concentration was 5 × 10^4 cells mL^−1. Eight different concentrations of every compound in three replicates and a minimum of six controls were used in each test. […] The test flasks were incubated on a shaker with a speed of approx. 75 rpm at the temperature and light conditions described above. Growth inhibition was calculated using the cell counts of the treated samples in relation to the untreated controls after 72 h of exposure. The cells were counted with the use of CASY TT Cell counter & analyzer."}, "Daphnia magna": {"system": "Daphnia magna", "assay": "D. magna acute immobilization test", "type": "in vivo", "conditions": "Daphnia magna; for mortality at 100 µg/mL: concentration 100 mg L^−1; for EC50: immobilization, 48 h, read-out: EC50 D. magna (with confidence interval 2.5–97.5%); for mortality at 40 µg/mL / mortality at 70 µg/mL: read-out: Immobilization", "procedure": "as §1, §2\nFive pre-fed test organisms were incubated with the studied compounds diluted in 10 mL of test media in glass test vessels at 20 °C (± 1 °C) in darkness for 48 h. Each test consisted of a control and five different concentrations of the studied compound in four parallel replicates. In order to achieve a full dose-response relationship, the concentration series covered the range of 0–100% immobilization. The number of immobilized or dead organisms was checked after 24 and 48 h. The negative effect of exposure to the tested compounds was expressed by the number of immobilized organisms compared to the controls."}, "Vibrio fischeri": {"system": "Vibrio fischeri", "assay": "microbe, parasite or virus in culture", "type": "cell-based", "conditions": "for EC50: 0.5 h, luminescence inhibition, 30 min, 15 °C, read-out: EC50 V. fischeri (with confidence interval 2.5–97.5%)", "procedure": "(§3) Stock solutions and dilutions were prepared in 2% NaCl in 0.02 M phosphate buffer, pH 7. The freeze-dried bacteria were rehydrated prior to testing in a reactivation solution. Culture suspensions and diluted samples were pre-incubated at 15 °C for 15 min. After the initial luminescence was measured, 0.5 mL of the culture suspension was mixed with the same volume of a diluted sample. The final bioluminescence was measured after 30 min. Incubation was kept at 15 °C (LUMIStox 300 meter, Dr. Lange GmbH, Berlin, Germany). The relative toxicity of the samples was expressed as a percentage of luminescence inhibition compared to the controls.\nas §3, with “m,” for “meter,”"}, "Lemna minor": {"system": "Lemna minor", "assay": "L. minor growth inhibition test", "conditions": "for EC50: 168 h, read-out: EC50 L. minor (with confidence interval 2.5–97.5%), growth rate inhibition by frond area, 7 days; for toxicity to L. minor: highest tested concentration (100 mg L^−1)", "procedure": "as §1, §2\nOne week before the assay, the inoculum cultures were prepared; eight healthy plants were placed into a new portion of the medium. Two days before the test, the plants were transferred to a fresh medium, in order to supplement nutrients and to eliminate plant metabolites. The experiments were performed in six-well plates under the conditions described above. The pH value of the Steinberg medium and all solutions was 5.5 (± 0.5). Every test included six different concentrations of compound and six controls in three replicates. The test started with one plant consisting of three fronds and the measured endpoint was the inhibition of growth rate determined by comparing the frond area (mm^2) for the treated plants and untreated controls."}, "Arthrobacter globiformis": {"system": "Arthrobacter globiformis", "assay": "A. globiformis dehydrogenase inhibition test (version without soil)", "conditions": "read-out: EC50 A. globiformis", "procedure": "as §1\nThe test strain was obtained from the German Collection of Microorganisms (DSMZ). A version of the test without soil was performed. Bacteria was grown in a sterile medium containing 10 g L^−1 peptone from casein, 5 g L^−1 yeast extract, 5 g L^−1 glucose, and 5 g L^−1 NaCl. For the test, the medium was diluted in a ratio of 1:3 in water. The inoculum was the bacteria in a log-growth phase. Cell density was adjusted to 1 × 10^8 cells mL^−1, which corresponds to an optical density (OD600nm) of 0.4. The test was performed in 24-well microplates. Each well contained 1 mL of solution of the tested compound in water and 1 mL of bacterial inoculum. Next, the plates were incubated for 2 h at 30 °C on a horizontal shaker with a speed of 100 rpm. To each well, a portion of 0.6 mL of the redox active dye resazurine (45 mg L^−1) dissolved in buffer was added. The microplates were further incubated for 1 h (30 °C, 100 rpm). To stop the reduction process, the plates were centrifuged at 3600g for 10 min. Aliquots (300 μl) of supernatant from each well were immediately transferred to the wells of a 96-well microplate in triplicates. Finally, the dehydrogenase activity was determined by measuring the formation of resorufin from resazurine using a fluorimeter ([…]). Dehydrogenase inhibition was calculated using Eq. 1.\nwhere FBTS is the measured fluorescence of the blank (medium) with the tested substance, FTS is the measured fluorescence of the sample, FBNC is the measured fluorescence of the blank, and FNC is the measured fluorescence of the negative control (with bacteria)."}, "aquatic organisms": {"system": "aquatic organisms", "conditions": "for the organisms named in the sentence"}, "[1]": {"conditions": "Aliivibrio fischeri, concentration 100 mg L^−1, read-out: Luminescence inhibition"}, "[2]": {"conditions": "Lemna minor, read-out: Growth inhibition of L. minor"}, "[3]": {"conditions": "Aliivibrio fischeri, read-out: Luminescence inhibition"}}, "note": "Where two headings read alike, the source gives them in different places."}
{"smiles": "NC(=O)N1c2ccccc2C2OC2c2ccccc21", "note": "(stereo not shown) [CRB-Ep, Carbamazepine 10,11-epoxide]", "values": [{"measurement": "inhibition at 100 µg/mL", "setting": "Raphidocelis subcapitata; concentration 100 mg L^−1", "value": 37, "unit": "%"}, {"measurement": "mortality at 100 µg/mL", "setting": "Daphnia magna", "value": 0, "unit": "%"}, {"measurement": "inhibition at 100 µg/mL", "setting": "Vibrio fischeri; [1]", "value": 30, "unit": "%"}, {"measurement": "inhibition at 50 µg/mL", "setting": "Lemna minor; [2]", "value": 32, "unit": "%"}]}
{"smiles": "CC(C)Cc1ccc([C@H](C)C(=O)O)cc1", "note": "[IBU Isomer S, S-ibuprofen]", "values": [{"measurement": "EC50", "setting": "Raphidocelis subcapitata", "value": 26.6, "unit": "µg/mL"}, {"measurement": "EC50", "setting": "Daphnia magna", "value": 63.1, "unit": "µg/mL"}, {"measurement": "EC50", "setting": "Lemna minor; Lemna minor", "value": 26.3, "unit": "µg/mL"}]}
{"smiles": "CC(C)Cc1ccc(C(C)C(=O)O)cc1", "note": "(stereo not shown) [IBU, Ibuprofen]", "values": [{"measurement": "EC50", "setting": "Arthrobacter globiformis", "value": "> 100", "unit": "µg/mL"}, {"measurement": "EC50", "setting": "Raphidocelis subcapitata", "value": 93.3, "unit": "µg/mL"}, {"measurement": "inhibition at 100 µg/mL", "setting": "Raphidocelis subcapitata; concentration 100 mg L^−1", "value": 52, "unit": "%"}, {"measurement": "mortality at 50 µg/mL", "setting": "Daphnia magna; concentration 50 mg L^−1", "value": 52, "unit": "%"}, {"measurement": "EC50", "setting": "Daphnia magna", "value": 50.1, "unit": "µg/mL"}, {"measurement": "inhibition at 10 µg/mL", "setting": "Vibrio fischeri; Aliivibrio fischeri, concentration 10 mg L^−1, read-out: Luminescence inhibition", "value": 42, "unit": "%"}, {"measurement": "EC50", "setting": "Lemna minor; Lemna minor", "value": 13.2, "unit": "µg/mL"}, {"measurement": "inhibition at 15 µg/mL", "setting": "Lemna minor; [2]", "value": 54, "unit": "%"}]}
{"smiles": "COCCc1ccc(OCC(O)CNC(C)C)cc1", "note": "(stereo not shown) [MET, Metoprolol]", "values": [{"measurement": "EC50", "setting": "Arthrobacter globiformis", "value": "> 100", "unit": "µg/mL"}, {"measurement": "EC50", "setting": "Raphidocelis subcapitata", "value": 35.6, "unit": "µg/mL"}, {"measurement": "inhibition at 100 µg/mL", "setting": "Raphidocelis subcapitata; concentration 100 mg L^−1", "value": 90, "unit": "%"}, {"measurement": "mortality at 100 µg/mL", "setting": "Daphnia magna", "value": 4, "unit": "%"}, {"measurement": "EC50", "setting": "Daphnia magna", "value": "> 100", "unit": "µg/mL"}, {"measurement": "EC50", "setting": "Vibrio fischeri; Aliivibrio fischeri", "value": "> 100", "unit": "µg/mL"}, {"measurement": "inhibition at 100 µg/mL", "setting": "Vibrio fischeri; [1]", "value": 3, "unit": "%"}, {"measurement": "EC50", "setting": "Lemna minor; Lemna minor", "value": "> 100", "unit": "µg/mL"}, {"measurement": "inhibition at 100 µg/mL", "setting": "Lemna minor; [2]", "value": 5, "unit": "%"}]}
{"smiles": "CC(C)NCC(O)COc1ccc(CC(=O)O)cc1", "note": "(stereo not shown) [MET-ACID, Metoprolol acid]", "values": [{"measurement": "inhibition at 100 µg/mL", "setting": "Raphidocelis subcapitata; concentration 100 mg L^−1", "value": 0, "unit": "%"}, {"measurement": "mortality at 100 µg/mL", "setting": "Daphnia magna", "value": 0, "unit": "%"}, {"measurement": "inhibition at 100 µg/mL", "setting": "Vibrio fischeri; [1]", "value": 0, "unit": "%"}, {"measurement": "inhibition at 100 µg/mL", "setting": "Lemna minor; [2]", "value": 5, "unit": "%"}, {"measurement": "toxicity to L. minor", "setting": "Lemna minor", "value": "non-toxic"}]}
{"smiles": "CC(=O)Nc1ccc(S(=O)(=O)Nc2cc(C)on2)cc1", "note": "[N4-SMZ, N^4-Acetylsulfamethoxazole]", "values": [{"measurement": "inhibition at 5 µg/mL", "setting": "Raphidocelis subcapitata", "value": 27, "unit": "%"}, {"measurement": "mortality at 40 µg/mL", "setting": "Daphnia magna", "value": 0, "unit": "%"}, {"measurement": "toxic effect / risk to V. fischeri", "setting": "Vibrio fischeri", "value": "negligible"}, {"measurement": "inhibition at 50 µg/mL", "setting": "Vibrio fischeri; [3]", "value": 8, "unit": "%"}, {"measurement": "inhibition at 3 µg/mL", "setting": "Lemna minor; [2]", "value": 17, "unit": "%"}]}
{"smiles": "CC(C(=O)O)c1ccc2cc(O)ccc2c1", "note": "(stereo not shown) [O-DES-NAP, O-Desmethylnaproxen]", "values": [{"measurement": "mortality at 70 µg/mL", "setting": "Daphnia magna; concentration 70 mg L^−1", "value": 0, "unit": "%"}, {"measurement": "inhibition at 25 µg/mL", "setting": "Vibrio fischeri; Aliivibrio fischeri, concentration 25 mg L^−1, read-out: Luminescence inhibition", "value": 20, "unit": "%"}]}
{"smiles": "CN(C)CC1CCCCC1(O)c1cccc(O)c1", "note": "(stereo not shown) [O-DES-TRA, O-Desmethyltramadol]", "values": [{"measurement": "inhibition at 100 µg/mL", "setting": "Raphidocelis subcapitata", "value": 35, "unit": "%"}, {"measurement": "mortality at 70 µg/mL", "setting": "Daphnia magna", "value": 8, "unit": "%"}, {"measurement": "inhibition at 100 µg/mL", "setting": "Vibrio fischeri; [3]", "value": 0, "unit": "%"}, {"measurement": "inhibition at 100 µg/mL", "setting": "Lemna minor; [2]", "value": 0, "unit": "%"}, {"measurement": "toxicity to L. minor", "setting": "Lemna minor", "value": "non-toxic"}]}
{"smiles": "Cc1cc(NS(=O)(=O)c2ccc(N)cc2)no1", "note": "[SMZ, Sulfamethoxazole]", "values": [{"measurement": "EC50", "setting": "Arthrobacter globiformis", "value": "> 100", "unit": "µg/mL"}, {"measurement": "inhibition at 5 µg/mL", "setting": "Raphidocelis subcapitata; concentration 5 mg L^−1", "value": 43, "unit": "%"}, {"measurement": "mortality at 40 µg/mL", "setting": "Daphnia magna; concentration 40 mg L^−1", "value": 48, "unit": "%"}, {"measurement": "EC50", "setting": "Daphnia magna", "value": 42.7, "unit": "µg/mL"}, {"measurement": "EC50", "setting": "Vibrio fischeri; Aliivibrio fischeri", "value": 51.8, "unit": "µg/mL"}, {"measurement": "inhibition at 50 µg/mL", "setting": "Vibrio fischeri; Aliivibrio fischeri, concentration 50 mg L^−1, read-out: Luminescence inhibition", "value": 46, "unit": "%"}, {"measurement": "classification on the basis of EC50 values (EC 93/67/EEC)", "setting": "aquatic organisms", "value": "toxic to aquatic organisms (1–10 mg L^−1 are “toxic to aquatic organisms”)"}, {"measurement": "inhibition at 3 µg/mL", "setting": "Lemna minor; [2]", "value": 49, "unit": "%"}]}
